In patent US20240400555A1 (Initial Therapeutics, Inc., priority 2023, published 2024):
Like-named read-outs stand apart in the source and are kept apart here.

Test system: MV-4-11 cells
Assay: Cell Viability Assay in MV-4-11 Cells
Assay type: cell-based
Procedure, shortened: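 Luminescent ATP read-out (CellTiter-Glo) after 72 h compound treatment of MV-4-11 leukaemia cells (7,000 per well, IMDM plus 10% FBS). Values expressed relative to DMSO control and derived by four-parameter non-linear regression.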

[1] = Homo sapiens, MV4-11, 72 h, MV-4-11 cells, 72 h, Cell-Titer Glo, read-out: IC50

SMILES	IC50 [1] [nM]	other results
Cc1cccc2ccnc(N(C(=O)c3cccc(C#CCCC(=O)NC(C)CO)c3)[C@@H]3CCCNC3)c12 (stereo partly drawn) [Example 520, 3-(5-((1-hydroxypropan-2-yl)amino)-5-oxopent-1-yn-1-yl)-N-(8-methylisoquinolin-1-yl)-N—((R)-piperidin-3-yl)benzamide]	1700	
CNC(=O)c1ccc(-c2cc3c(N(C(=O)c4ccc(-c5cn(C)nn5)cc4F)[C@@H]4CCCNC4)nccc3s2)cc1 [Example 521, (R)-2-fluoro-4-(1-methyl-1H-1,2,3-triazol-4-yl)-N-(2-(4-(methylcarbamoyl)phenyl)thieno[3,2-c]pyridin-4-yl)-N-(piperidin-3-yl)benzamide]	760	
CC(C)NC(=O)c1ccc(-c2cc3c(N(C(=O)c4ccc(-c5cn(C)nn5)cc4F)[C@@H]4CCCNC4)nccc3s2)cc1 [Example 522, 2-fluoro-N-[2-[4-(isopropylcarbamoyl)phenyl]thieno[3,2-c]pyridin-4-yl]-4-(1-methyltriazol-4-yl)-N-[(3R)-3-piperidyl]benzamide]	770	
Cn1cc(-c2ccc(C(=O)N(c3nccc4sc(-c5ccc(C(=O)Nc6ccccc6)cc5)cc34)[C@@H]3CCCNC3)c(F)c2)nn1 [Example 523, 2-fluoro-4-(1-methyltriazol-4-yl)-N-[2-[4-(phenylcarbamoyl)phenyl]thieno[3,2-c]pyridin-4-yl]-N-[(3R)-3-piperidyl]benzamide]	920	
Cn1cc(-c2ccc(C(=O)N(c3nccc4sc(-c5ccc(C(=O)NCCO)cc5)cc34)[C@@H]3CCCNC3)c(F)c2)nn1 [Example 524]	> 10000	
CNC(=O)/C=C/c1cc2c(N(C(=O)c3ccc(-n4nnc5cccnc54)cc3F)[C@@H]3CCCNC3)nccc2s1 [Example 525, 2-fluoro-N-[2-[(E)-3-(methylamino)-3-oxo-prop-1-enyl]thieno[3,2-c]pyridin-4-yl]-N-[(3R)-3-piperidyl]-4-(triazolo[4,5-b]pyridin-3-yl)benzamide]	790	
CN(C)C(=O)/C=C/c1cc2c(N(C(=O)c3ccc(-n4nnc5cccnc54)cc3F)[C@@H]3CCCNC3)nccc2s1 [Example 526, N-[2-[(E)-3-(dimethylamino)-3-oxo-prop-1-enyl]thieno[3,2-c]pyridin-4-yl]-2-fluoro-N-[(3R)-3-piperidyl]-4-(triazolo[4,5-b]pyridin-3-yl)benzamide]	870	
CNC(=O)c1nc(-c2cc3c(N(C(=O)c4ccc(-n5nnc6cccnc65)cc4F)[C@@H]4CCCNC4)nccc3s2)cs1 [Example 527, 4-[4-[[2-fluoro-4-(triazolo[4,5-b]pyridin-3-yl)benzoyl]-[(3R)-3-piperidyl]amino]thieno[3,2-c]pyridin-2-yl]-N-methyl-thiazole-2-carboxamide]	200	
CN(C)C(=O)c1ccc(-c2cc3c(N(C(=O)c4ccc(-c5cn(C)nn5)cc4F)[C@@H]4CCCNC4)nccc3s2)cc1 [Example 528, (R)—N-(2-(4-(dimethylcarbamoyl)phenyl)thieno[3,2-c]pyridin-4-yl)-2-fluoro-4-(1-methyl-1H-1,2,3-triazol-4-yl)-N-(piperidin-3-yl)benzamide]	870	
Cn1cc(-c2ccc(C(=O)N(c3nccc4sc(-c5ccc(-c6cc[nH]n6)cc5)cc34)[C@@H]3CCCNC3)c(F)c2)nn1 [Example 529, 2-fluoro-4-(1-methyltriazol-4-yl)-N-[(3R)-3-piperidyl]-N-[2-[4-(1H-pyrazol-3-yl)phenyl]thieno [3,2-c]pyridin-4-yl] benzamide]	140	
O=C(c1ccc(-n2nnc3cccnc32)cc1F)N(c1nccc2cc(-c3nn[nH]c3CO)ccc12)[C@@H]1CCCNC1 [Example 530, (R)-4-(3H-[1,2,3]triazolo[4,5-b]pyridin-3-yl)-2-fluoro-N-(6-(5-(hydroxymethyl)-1H-1,2,3-triazol-4-yl)isoquinolin-1-yl)-N-(piperidin-3-yl)benzamide]	1600	
CNc1nccc(-c2cc3c(N(C(=O)c4ccc(-c5cn(C)nn5)cc4F)[C@@H]4CCCNC4)nccc3s2)n1 [Example 531, (R)-2-fluoro-4-(1-methyl-1H-1,2,3-triazol-4-yl)-N-(2-(2-(methylamino)pyrimidin-4-yl)thieno[3,2-c]pyridin-4-yl)-N-(piperidin-3-yl)benzamide]	430	
C=CC(=O)Nc1cccc(-c2cc3c(N(C(=O)c4ccc(-c5cn(C)nn5)cc4F)[C@@H]4CCCNC4)nccc3s2)c1 [Example 532, 2-fluoro-4-(1-methyltriazol-4-yl)-N-[(3R)-3-piperidyl]-N-[2-[3-(prop-2-enoylamino)phenyl]thieno[3,2-c]pyridin-4-yl]benzamide]	1800	
Cn1cc(-c2ccc(C(=O)N(c3nccc4sc(-c5ccc6c(c5)C(=O)NC6)cc34)[C@@H]3CCCNC3)c(F)c2)nn1 [Example 533, 2-fluoro-4-(1-methyltriazol-4-yl)-N-[2-(3-oxoisoindolin-5-yl)thieno[3,2-c]pyridin-4-yl]-N-[(3R)-3-piperidyl]benzamide]	910	
CNS(=O)(=O)c1ccc(-c2cc3c(N(C(=O)c4ccc(-c5cn(C)nn5)cc4F)[C@@H]4CCCNC4)nccc3s2)cc1 [Example 534, (R)-2-fluoro-4-(1-methyl-1H-1,2,3-triazol-4-yl)-N-(2-(4-(N-methylsulfamoyl)phenyl)thieno[3,2-c]pyridin-4-yl)-N-(piperidin-3-yl)benzamide]	200	
CNS(=O)(=O)c1cccc(-c2cc3c(N(C(=O)c4ccc(-c5cn(C)nn5)cc4F)[C@@H]4CCCNC4)nccc3s2)c1 [Example 535, 2-fluoro-N-[2-[3-(methylsulfamoyl)phenyl]thieno[3,2-c]pyridin-4-yl]-4-(1-methyltriazol-4-yl)-N-[(3R)-3-piperidyl]benzamide]	1200	
Cn1cc(-c2ccc(C(=O)N(c3nccc4sc(-c5ccc(S(=O)(=O)NCCN)cc5)cc34)[C@@H]3CCCNC3)c(F)c2)nn1 [Example 536, N-[2-[4-(2-aminoethylsulfamoyl)phenyl]thieno[3,2-c]pyridin-4-yl]-2-fluoro-4-(1-methyltriazol-4-yl)-N-[(3R)-3-piperidyl] benzamide]	> 10000	
CC(C)NS(=O)(=O)c1ccc(-c2cc3c(N(C(=O)c4ccc(-c5cn(C)nn5)cc4F)[C@@H]4CCCNC4)nccc3s2)cc1 [Example 537, 2-fluoro-N-[2-[4-(isopropylsulfamoyl)phenyl]thieno[3,2-c]pyridin-4-yl]-4-(1-methyltriazol-4-yl)-N-[(3R)-3-piperidyl]benzamide]	1600	
Cn1cc(-c2ccc(C(=O)N(c3nccc4sc(-c5ccc6c(c5)CNC6=O)cc34)[C@@H]3CCCNC3)c(F)c2)nn1 [Example 538, 2-fluoro-4-(1-methyltriazol-4-yl)-N-[2-(1-oxoisoindolin-5-yl)thieno[3,2-c]pyridin-4-yl]-N-[(3R)-3-piperidyl]benzamide]	920	
CC(C)NC(=O)c1cccc(-c2cc3c(N(C(=O)c4ccc(-c5cn(C)nn5)cc4F)[C@@H]4CCCNC4)nccc3s2)c1 [Example 539, 2-fluoro-N-[2-[3-(isopropylcarbamoyl)phenyl]thieno[3,2-c]pyridin-4-yl]-4-(1-methyltriazol-4-yl)-N-[(3R)-3-piperidyl]benzamide]	630	
Cn1cc(-c2ccc(C(=O)N(c3nccc4sc(-c5cccc(C(=O)Nc6ccccc6)c5)cc34)[C@@H]3CCCNC3)c(F)c2)nn1 [Example 540, 2-fluoro-4-(1-methyltriazol-4-yl)-N-[2-[3-(phenylcarbamoyl)phenyl]thieno[3,2-c]pyridin-4-yl]-N-[(3R)-3-piperidyl]benzamide]		IC50 (Homo sapiens, MV4-11, 72 h): 470 nM
CNC(=O)c1cccc(-c2cc3c(N(C(=O)c4ccc(-c5cn(C)nn5)cc4F)[C@@H]4CCCNC4)nccc3s2)c1 [Example 541, 2-fluoro-N-[2-[3-(methylcarbamoyl)phenyl]thieno[3,2-c]pyridin-4-yl]-4-(1-methyltriazol-4-yl)-N-[(3R)-3-piperidyl] benzamide]		IC50 (MV-4-11 cells, 72 h, Cell-Titer Glo, read-out: IC50): 640 nM
Cn1cc(-c2ccc(C(=O)N(c3nccc4sc(-c5cccc(C(=O)NCCO)c5)cc34)[C@@H]3CCCNC3)c(F)c2)nn1 [Example 542, 2-fluoro-N-[2-[3-(2-hydroxyethylcarbamoyl)phenyl]thieno[3,2-c]pyridin-4-yl]-4-(1-methyltriazol-4-yl)-N-[(3R)-3-piperidyl]benzamide]	6300	
Cn1cc(-c2ccc(C(=O)N(c3nccc4sc(-c5ccc6cc[nH]c6c5)cc34)[C@@H]3CCCNC3)c(F)c2)nn1 [Example 543, 2-fluoro-N-[2-(1H-indol-6-yl)thieno [3,2-c]pyridin-4-yl]-4-(1-methyltriazol-4-yl)-N-[(3R)-3-piperidyl] benzamide]	310	
Cn1cc(-c2ccc(C(=O)N(c3nccc4sc(-c5ccc6c(c5)NC(=O)C6)cc34)[C@@H]3CCCNC3)c(F)c2)nn1 [Example 544]	1800	
Cn1cc(-c2ccc(C(=O)N(c3nccc4sc(-c5ccc6[nH]c(=O)[nH]c6c5)cc34)[C@@H]3CCCNC3)c(F)c2)nn1 [Example 545]	5300	
Cn1cc(-c2ccc(C(=O)N(c3nccc4sc(-c5ccc6[nH]ccc6c5)cc34)[C@@H]3CCCNC3)c(F)c2)nn1 [Example 546, 2-fluoro-N-[2-(1H-indol-5-yl)thieno[3,2-c]pyridin-4-yl]-4-(1-methyltriazol-4-yl)-N-[(3R)-3-piperidyl]benzamide]	92	
CC(=O)Nc1ccc(-c2cc3c(N(C(=O)c4ccc(-c5cn(C)nn5)cc4F)[C@@H]4CCCNC4)nccc3s2)cc1 [Example 547, (R)—N-(2-(4-acetamidophenyl)thieno[3,2-c]pyridin-4-yl)-2-fluoro-4-(1-methyl-1H-1,2,3-triazol-4-yl)-N-(piperidin-3-yl)benzamide]	480	
CNC(=S)Nc1ccc(-c2cc3c(N(C(=O)c4ccc(-c5cn(C)nn5)cc4F)[C@@H]4CCCNC4)nccc3s2)cc1 [Example 548, (R)-2-fluoro-4-(1-methyl-1H-1,2,3-triazol-4-yl)-N-(2-(4-(3-methylthioureido)phenyl)thieno[3,2-c]pyridin-4-yl)-N-(piperidin-3-yl)benzamide]		IC50 (Homo sapiens, MV4-11, 72 h): 240 nM
